# Laboratory results from patent US10995068B2, “Synthetic sphingolipid-like molecules, drugs, methods of their synthesis and methods of treatment” (The Regents of the University of California, priority 2015, dated 2021).
# “Also recorded” adds a separate entry of the source.
# Legend:
# CD98 (4F2hc, SLC3A2) = experiment: Surface CD98 nutrient transporter down-regulation by flow cytometry; format: cell-based, murine; details: FL5.12 cells
# From the text: (§1) In an exemplified study, nutrient transporter down-regulation was monitored by quantifying surface levels of the amino acid transporter-associated protein, CD98, by flow cytometry. Vacuolation was scored in a range from 0 to […], as determined by a vacuolation assay described in greater detail in the Materials and Methods section below.
# (§2) Cell culture studies: FL5.12 cells (murine hematopoetic cells originally obtained from Craig Thompson, Memorial Sloan Kettering Cancer Center) were maintained at 0.1-0.5 million/ml in RPMI 1640 (Mediatech) supplemented with 10% fetal calf serum (FCS, Sigma-Aldrich), 10 mM Hepes (Mediatech), 500 pg/ml recombinant IL-3 (cat #575502, Biolegend), 55 μM β-mercaptoethanol (Sigma-Aldrich), 2 mM L-glutamine (Mediatech), and antibiotics. Cells were screened for Mycoplasma every 3 months using the Look-Out Mycoplasma PCR Detection kit (cat #MP0035, Sigma).
# Nutrient transporter expression: Surface CD98 (4F2hc, SLC3A2) expression was measured at 3 h using phycoerythrin (PE)-conjugated rat anti-mouse CD98 antibody (Biolegend, cat #128208); analysis was restricted to viable cells. PE conjugated Rat IgG2a, k (cat #400508, Biolegend) was used as an isotype control. For staining, 200,000 cells were pelleted, re-suspended in 100 μl FACS block (PBS with 10% FCS and 0.05% NaN3) containing 0.25 μL anti-CD98 antibody, incubated on ice for 30 min, washed twice with 1 ml FACS wash (PBS containing 2% FCS and 0.05% NaN3), and analyzed on a BD LSR II flow cytometer. Data was processed with FlowJo software (Treestar).
# [1] = system: murine hematopoietic cell line FL5.12; experiment: Viability of FL5.12 cells by vital dye exclusion; format: cell-based; details: FL5.12 cells, 48 h, vital dye exclusion, n ≥3
# Procedure: as §2
# IC50 values were calculated using GraphPad Prism (GraphPad Software, Inc, La Jolla, Calif.).
# PP2A = PP2A phosphatase activity; format: biochemical, murine; details: PP2A immunoprecipitated from FL5.12 cell lysates, phosphopeptide dephosphorylation
# From the text: Furthermore, many embodiments of the invention are directed to azacyclic constrained sphingolipid-like molecules inducing internalization of nutrient transporters via a mechanism that activates PP2A. […] Thus, activation of PP2A is very peculiar to certain sphingolipid structures. Activation of PP2A by FTY720 and SH-BC-893 also stimulated vacuolation, and as the PP2A inhibitors calyculin A and SV40 small t antigen, each blocked this effect (FIG. 59C). Of note, YM201636-induced vacuolation was unaffected by PP2A inhibition (FIG. 60B). In addition, inhibiting PP2A restored PIKfyve to the proper location within vacuoles in cells treated with FTY720 or SH-BC-893 (FIG. 57D).
# PP2A phosphatase activity. PP2A activity was measured using a PP2A immunoprecipitation phosphatase assay kit (EMD Millipore). Briefly, the catalytic subunit of PP2A was immunoprecipitated from FL5.12 cell lysates with 4 μg anti-PP2A, C subunit. After four washes, the activity of immunoprecipitated PP2A was assessed by dephosphorylation of the phosphopeptide according to the manufacturer's instructions in the presence or absence of C2-ceramide, dihydro-C2-ceramide, FTY720, SH-BC-893, or calyculinA.
# FL5.12 cells = experiment: Vacuolation assay; format: cell-based, murine; design: key to Vacuolation score: 0-100 score: (3×%cat3+2×%cat2+1×%cat1)/3; cells graded 0-3 for vacuoles; details: FL5.12 cells; for Vacuolation score: 3 h in 2.5 μM compound except where otherwise indicated, mean ± SEM, n ≥3; for vacuolation (in words): at any dose / highest dose tested
# Procedure: as §1
# Vacuolation assay: Cells were evaluated at 100× using brightfield microscopy and a Nikon TE2000-S fluorescence microscope equipped with DIC filters. Vacuolation was quantified after a 3 h incubation period in 2.5 μM compound except where otherwise indicated. To calculate a vacuolation score, vacuolation severity in at least 15 individual cells/experiment was assessed qualitatively. Scores were assigned to individual cells as follows: 0=no vacuoles, 1=very small vacuoles, 2=multiple well-defined vacuoles, 3=multiple large vacuoles. To calculate the vacuolation score associated with a compound, the following formula was used: vacuolation score=[(3×% cells in category 3)+(2×% cells in category 2)+(1×% cells in category 1)]/3.
# The score is divided by 3 so that a compound with 100% of its cells in category 3 would have a vacuolation score of 100. Three independent experiments were conducted and the vacuolation scores averaged to generate a mean+/−SEM. All cells were scored by one lab member after confirming that a blinded individual scored 5 compounds with similar results.
PP2A activation (PP2A),SMILES,"concentration required to cause similar transporter loss (CD98 (4F2hc, SLC3A2); CD98 loss) [µM]","% CD98 down-regulation (CD98 (4F2hc, SLC3A2); surface CD98 at 3 h, flow cytometry, mean ± SEM, n ≥3) [%]",IC50 ([1]; read-out: IC50 (μM) [95% CI]) [µM],Vacuolation score (FL5.12 cells),vacuolation (in words) (FL5.12 cells),IC50 (μM) [95% CI] [1]
activating PP2A,"CCCCCCCCCCCCC/C=C/[C@@H](O)[C@H](CO)NC(C)=O [Compound 109, C2-ceramide, reference compound]",50,47 ± 3,33,0,did not cause vacuolation,–
does not activate PP2A,"CCCCCCCCCCCCCCC[C@@H](O)[C@H](CO)NC(C)=O [Compound 110, dihydro-C2-ceramide, reference compound]",–,–,–,0,caused no vacuolation,failed to kill cells; also recorded: Cytostatic
